The source made the active and inactive calls.

Usually CC50 stands for the concentration that lowers cell viability or growth by half. The EC50 is the concentration giving half of the maximal effect. Usually IC50 stands for the midpoint of a concentration-inhibition curve. By AC50 is commonly meant the concentration at which the activity in the assay is half-maximal.

Assay [1] has as its system Vero. Put plainly: cells. Format: functional. The following applies: Chlorocebus sabaeus.
Assay [2] is described as follows: growth suppression of PTEN-null colon cells, dose response, cell-based, HCT116 PTEN knockout (AID 1047).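 Note: HCT116 colon tumor cells with PTEN knocked out; cells exposed to compound for 60 hours before readout; potency for loss of cell viability measured by luminescence.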 In kind it is functional.
The target in assay [3] is Genome polyprotein (dengue virus type 2, UniProt P29990). Kind of assay: Dengue-2 NS5 methyltransferase inhibitors, primary screen, biochemical, confirmation dose response (AID 588689). Format: functional.
Sequence of Genome polyprotein (P29990 2492-3391 limits assumed): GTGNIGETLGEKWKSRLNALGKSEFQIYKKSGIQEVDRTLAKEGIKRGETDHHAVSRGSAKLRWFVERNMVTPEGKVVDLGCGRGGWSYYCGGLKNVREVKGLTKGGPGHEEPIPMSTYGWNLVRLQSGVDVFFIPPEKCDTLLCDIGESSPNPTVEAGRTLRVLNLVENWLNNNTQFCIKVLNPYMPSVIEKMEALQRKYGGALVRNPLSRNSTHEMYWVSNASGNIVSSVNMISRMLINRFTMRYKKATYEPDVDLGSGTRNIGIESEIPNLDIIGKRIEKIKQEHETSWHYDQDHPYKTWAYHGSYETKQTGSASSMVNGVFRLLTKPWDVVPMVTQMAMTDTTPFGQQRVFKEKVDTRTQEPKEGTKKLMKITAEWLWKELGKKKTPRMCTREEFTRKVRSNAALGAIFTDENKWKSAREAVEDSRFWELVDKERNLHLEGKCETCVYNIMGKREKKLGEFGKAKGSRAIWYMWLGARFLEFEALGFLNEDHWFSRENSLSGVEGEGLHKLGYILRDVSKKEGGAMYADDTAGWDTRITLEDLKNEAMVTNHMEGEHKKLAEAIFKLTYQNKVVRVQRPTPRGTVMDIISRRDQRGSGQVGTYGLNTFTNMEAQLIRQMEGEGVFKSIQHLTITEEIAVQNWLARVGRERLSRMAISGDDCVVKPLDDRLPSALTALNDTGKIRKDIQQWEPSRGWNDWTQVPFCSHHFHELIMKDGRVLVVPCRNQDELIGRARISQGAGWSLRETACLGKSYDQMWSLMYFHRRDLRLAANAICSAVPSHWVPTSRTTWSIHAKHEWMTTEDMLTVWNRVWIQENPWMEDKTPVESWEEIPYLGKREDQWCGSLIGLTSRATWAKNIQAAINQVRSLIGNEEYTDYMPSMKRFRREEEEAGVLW
In assay [4] the target is Nonstructural protein 1 (Influenza A virus, UniProt Q194T2). In kind it is functional, Influenza A virus (A/California/07/2009(H1N1)).
Sequence of Nonstructural protein 1 (Q194T2 whole entry, the tested form may be a part): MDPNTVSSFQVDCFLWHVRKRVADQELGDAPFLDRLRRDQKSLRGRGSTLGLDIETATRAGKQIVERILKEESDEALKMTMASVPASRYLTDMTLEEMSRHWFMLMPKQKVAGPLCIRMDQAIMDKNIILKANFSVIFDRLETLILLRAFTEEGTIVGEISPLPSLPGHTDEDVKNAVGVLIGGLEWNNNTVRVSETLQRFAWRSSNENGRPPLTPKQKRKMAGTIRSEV
The target in assay [5] is T1, Carboxy-terminal domain RNA polymerase II polypeptide A small phosphatase 1 (Homo sapiens, UniProt Q9GZU7).
T1 sequence (Q9GZU7 whole entry): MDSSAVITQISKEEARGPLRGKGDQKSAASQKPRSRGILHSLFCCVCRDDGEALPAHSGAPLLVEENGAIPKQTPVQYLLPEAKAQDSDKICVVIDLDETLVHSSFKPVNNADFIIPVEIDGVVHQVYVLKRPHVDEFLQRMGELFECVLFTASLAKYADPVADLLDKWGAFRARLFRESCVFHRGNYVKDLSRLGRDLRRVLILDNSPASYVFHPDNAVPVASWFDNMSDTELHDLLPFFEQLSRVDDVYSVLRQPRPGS
Put plainly: inhibitors of CTDSP1, concentration-response testing, biochemical assay, absorbance-based, actives from ultra-high-throughput screening (AID 540297). Format: functional.

Assay [6] in a line: Shn3 3'UTR reporter inhibitors, dose response, cell-based, Clone20 osteoblasts, firefly luciferase, cherry-picked (AID 624132).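 Note: firefly luciferase luminescence from reporter carrying the Shn3 3'UTR in osteoblasts.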 In kind it is functional.
Assay [7] can be described thus: HepG2 cell cytotoxicity, dose response, cytotoxicity control for Shn3 inhibitor project, CellTiter-Glo, cherry-picked (AID 624134). Format: functional, cell-based. Background: In ATP-based viability assays light output follows the ATP content of the culture.
Assay [8] is described as follows: control 3'UTR Renilla luciferase suppression, dose response, counter-screen for Shn3 inhibitor project, cell-based, Clone20-Shn3RL, cherry-picked (AID 624133). Format: functional. (Counterscreens check selectivity or assay interference.)
Assay [9] has as its target T2, Heat shock factor protein 1 (Mus musculus, UniProt P38532).
T2 sequence (P38532 whole entry): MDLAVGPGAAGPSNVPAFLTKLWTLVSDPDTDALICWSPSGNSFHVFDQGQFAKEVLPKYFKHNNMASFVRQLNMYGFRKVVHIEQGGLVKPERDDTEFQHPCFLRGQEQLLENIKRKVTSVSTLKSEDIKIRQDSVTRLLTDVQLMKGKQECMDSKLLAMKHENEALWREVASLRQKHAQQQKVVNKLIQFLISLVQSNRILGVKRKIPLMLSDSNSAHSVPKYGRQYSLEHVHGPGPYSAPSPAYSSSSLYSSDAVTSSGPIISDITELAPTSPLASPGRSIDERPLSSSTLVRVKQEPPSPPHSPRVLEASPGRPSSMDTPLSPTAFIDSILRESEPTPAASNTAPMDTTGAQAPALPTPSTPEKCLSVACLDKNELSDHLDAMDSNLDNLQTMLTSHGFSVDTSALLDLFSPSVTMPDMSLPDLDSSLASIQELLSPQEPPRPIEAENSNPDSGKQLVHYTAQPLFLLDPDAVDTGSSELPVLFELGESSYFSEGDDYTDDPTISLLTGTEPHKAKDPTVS
Put plainly: inhibition of MG132-induced HSE-luciferase signal, confirmation, cell-based, NIH3T3, luminescence, dose retest (AID 2382).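 Note: NIH3T3 fibroblasts with HSF1-driven luciferase reporter stressed by proteasome inhibitor MG132; luminescence from HSF1-driven luciferase expression after 8 hours of MG132 stress.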 Format: functional.

The target of assay [10] is T3, Rac GTPase-activating protein 1 (Homo sapiens, UniProt Q9H0H5).
T3 sequence (Q9H0H5 whole entry): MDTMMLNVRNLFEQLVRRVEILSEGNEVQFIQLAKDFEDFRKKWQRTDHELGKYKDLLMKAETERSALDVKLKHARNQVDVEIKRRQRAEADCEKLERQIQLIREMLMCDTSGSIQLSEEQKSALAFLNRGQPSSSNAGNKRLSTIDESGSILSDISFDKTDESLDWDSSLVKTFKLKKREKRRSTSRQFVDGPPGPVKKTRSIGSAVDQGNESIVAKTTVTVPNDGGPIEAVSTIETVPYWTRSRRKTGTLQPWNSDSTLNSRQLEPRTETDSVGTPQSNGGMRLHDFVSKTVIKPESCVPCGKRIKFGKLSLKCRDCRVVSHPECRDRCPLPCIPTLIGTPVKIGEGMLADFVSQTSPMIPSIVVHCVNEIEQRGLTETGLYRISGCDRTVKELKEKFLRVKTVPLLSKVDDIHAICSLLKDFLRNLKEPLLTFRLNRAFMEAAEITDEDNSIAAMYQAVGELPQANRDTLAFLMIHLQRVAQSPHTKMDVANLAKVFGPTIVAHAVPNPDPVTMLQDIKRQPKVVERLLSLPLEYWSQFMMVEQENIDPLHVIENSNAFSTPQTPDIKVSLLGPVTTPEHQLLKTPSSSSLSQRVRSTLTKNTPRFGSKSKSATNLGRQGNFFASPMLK
Put plainly: MgcRacGAP GTPase-activating activity inhibitors, confirmation, biochemical, ADP Hunter fluorescence, primary and confirmatory (AID 624330). In kind it is functional.

Assay [11] concerns the target T4, Protein RecA (Mycobacterium tuberculosis, UniProt P9WHJ3).
T4 sequence (P9WHJ3 whole entry): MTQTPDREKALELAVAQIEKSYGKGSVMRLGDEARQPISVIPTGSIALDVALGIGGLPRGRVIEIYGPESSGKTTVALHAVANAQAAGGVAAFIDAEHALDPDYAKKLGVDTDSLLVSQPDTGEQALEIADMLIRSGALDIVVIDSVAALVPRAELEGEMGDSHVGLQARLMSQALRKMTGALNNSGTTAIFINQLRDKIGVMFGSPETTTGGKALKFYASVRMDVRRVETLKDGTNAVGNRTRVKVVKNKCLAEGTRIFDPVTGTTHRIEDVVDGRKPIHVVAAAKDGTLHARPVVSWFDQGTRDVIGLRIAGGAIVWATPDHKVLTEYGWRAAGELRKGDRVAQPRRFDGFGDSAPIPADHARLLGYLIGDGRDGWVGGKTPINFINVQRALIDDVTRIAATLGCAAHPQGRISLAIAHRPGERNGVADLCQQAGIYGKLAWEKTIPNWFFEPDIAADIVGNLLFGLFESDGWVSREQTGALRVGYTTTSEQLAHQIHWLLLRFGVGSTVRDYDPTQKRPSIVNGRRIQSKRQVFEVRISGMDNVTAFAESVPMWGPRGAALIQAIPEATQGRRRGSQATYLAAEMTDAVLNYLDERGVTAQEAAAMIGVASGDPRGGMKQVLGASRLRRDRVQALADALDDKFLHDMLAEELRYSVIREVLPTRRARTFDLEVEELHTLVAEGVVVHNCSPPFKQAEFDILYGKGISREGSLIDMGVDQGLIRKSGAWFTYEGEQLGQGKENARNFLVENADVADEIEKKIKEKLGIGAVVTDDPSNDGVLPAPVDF
Put plainly: Fluorescence Cell-Free Homogeneous Dose Retest to Identify Inhibitors of RecA-Intein Splicing Activity. [Related pubchem assays (depositor defined):AID2097, AID2223, AID489010, AID492950]. Format: functional.

In assay [12] the target is T5, Replicative DNA helicase DnaB (Mycobacterium tuberculosis, UniProt P9WMR3).
T5 sequence (P9WMR3 whole entry): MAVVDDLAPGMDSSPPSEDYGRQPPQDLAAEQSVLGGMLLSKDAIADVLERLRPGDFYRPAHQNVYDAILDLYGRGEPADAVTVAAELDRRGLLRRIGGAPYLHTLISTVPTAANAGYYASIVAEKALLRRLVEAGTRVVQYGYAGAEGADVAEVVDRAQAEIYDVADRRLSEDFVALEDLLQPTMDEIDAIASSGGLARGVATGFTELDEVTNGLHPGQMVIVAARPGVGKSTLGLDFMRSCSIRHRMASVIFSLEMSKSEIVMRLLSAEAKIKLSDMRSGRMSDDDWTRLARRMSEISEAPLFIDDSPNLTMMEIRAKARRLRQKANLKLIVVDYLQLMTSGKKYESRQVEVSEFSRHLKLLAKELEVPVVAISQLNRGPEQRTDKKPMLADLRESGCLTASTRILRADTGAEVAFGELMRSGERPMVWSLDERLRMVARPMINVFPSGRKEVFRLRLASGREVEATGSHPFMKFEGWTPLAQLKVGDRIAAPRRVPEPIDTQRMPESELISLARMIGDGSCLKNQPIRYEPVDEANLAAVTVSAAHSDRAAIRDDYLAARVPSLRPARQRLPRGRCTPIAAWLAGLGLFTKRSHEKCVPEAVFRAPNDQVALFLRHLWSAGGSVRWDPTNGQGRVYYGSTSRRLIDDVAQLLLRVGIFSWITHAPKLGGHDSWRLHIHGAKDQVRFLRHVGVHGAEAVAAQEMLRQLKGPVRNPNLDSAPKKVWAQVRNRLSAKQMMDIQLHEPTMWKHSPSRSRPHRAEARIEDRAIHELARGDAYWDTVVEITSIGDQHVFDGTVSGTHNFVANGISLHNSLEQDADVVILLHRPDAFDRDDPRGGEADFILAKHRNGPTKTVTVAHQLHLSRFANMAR
Kind of assay: DnaB intein splicing inhibitors, dose response, biochemical, cell-free fluorescence (AID 449749). Format: functional.

Assay [13] can be described thus: inhibitors of clade B AD8 Env fusion, dose response, cell-based, cherry-pick (AID 652062).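 Note: luciferase signal from cell-cell fusion driven by HIV-1 clade B AD8 Env; potency is for inhibitors of fusion seen as a drop in luminescence.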 In kind it is functional.
The nature of assay [14]: inhibitors of HIV Env-driven cell fusion, dose response, cherry-pick (AID 652057). Format: functional, cell-based.

As to `CCN(CC)CCNc1nc(-c2ccc(OC)cc2)c(-c2ccc(OC)cc2)s1`, the cytotoxic concentration (CC50) in assay [1] is > 25 µM (active).

With `CCN1CCN(c2cc(C)c3cc(NC(=O)c4ccc5c(c4)OCO5)ccc3n2)CC1`, in assay [1], the CC50 is > 25 µM (active). In addition, the EC50 in assay [2] was 25.1 µM (active).

`COc1cc(C(C2C(=O)CC(C)(C)CC2=O)C2C(=O)CC(C)(C)CC2=O)cc(OC)c1OC`: in assay [3], the IC50 was 87.7 µM (active).

Turning to `Oc1ccc2ccccc2c1N=Nc1ccc(F)cc1`, in assay [4], the IC50 was 16.2 µM (active).

For `Cc1noc(-c2ccc(Cl)cc2)c1C(=O)ON=C(N)c1ccc(C(C)(C)C)cc1`, in assay [1], the CC50 was 18.8 µM (active).

`C/C=C\C=C\C(=O)N1CC2(CC(c3cccc(NC(=O)CC)c3)=NO2)C[C@H]1C(N)=O` (stereo partly drawn): the IC50 in [5] is 7.57 µM (active).

Turning to `O=C(CCC1N=C2c3ccccc3N=C(SCC(=O)NCc3ccco3)N2C1=O)NCc1ccco1` (stereo not drawn), the IC50 in assay [5] was 5.31 µM (active).

Regarding `CC(Sc1nc2ccccc2c(=O)n1C)C(=O)Nc1ccc2c(c1)OCCO2` (stereo not drawn), the AC50 in [6] is 1.94 µM (active); in [7] it was > 70 µM (inactive); in assay [8], 9.21 µM (active).

Regarding `Cc1nn(Cc2cccc(C(=O)NC3CCCCC3)c2)c(C)c1Cl`, the CC50 in [1] is > 25 µM (active).

On to `CCOC(=O)C1(C)C(N=Nc2cccc(Cl)c2)=C(O)C(=O)N1c1ccccc1` (stereo not drawn), for which, in assay [3], the IC50 is 18.4 µM (active).

Consider `Cc1c(NS(=O)(=O)c2cc(C(=O)NCCN(C)C)ccc2Cl)c(=O)n(-c2ccccc2)n1C`, for which the EC50 in assay [9] is on record as > 195 µM (not active). The IC50 in [5] was 9.93 µM (active).

As to `Cc1cc(NNC(=O)c2cccc(C(F)(F)F)c2)nc2c1c(C)nn2C`, the AC50 in [6] is 2.43 µM (active); in [7] it was 57 µM (active); in [8] it was 3.61 µM (active).

As for `N#C/C(=C\c1ccccc1[N+](=O)[O-])c1nc(C2CC2)cs1`, in [4], the IC50 is 75.1 µM (active).

Regarding `CS(=O)(=O)C1=NN2C(=N)/C(=C\c3ccc(OCCOc4ccccc4)cc3)C(=O)N=C2S1`, the IC50 in assay [5] was 6.76 µM (active).

On to `Cc1ccc(C)c(N2CCN(C(=O)CCS(=O)(=O)c3ccc4c(c3)NC(=O)C(C)S4)CC2)c1` (stereo not drawn), for which the AC50 in assay [6] is 4.47 µM (active); in assay [7], 4.58 µM (active); in assay [8], 8.6 µM (active).

`COc1ccccc1/C=C1/C(=O)N(c2ccccc2)N=C1C`: the IC50 is 90.2 µM (active) in assay [3] and 119 µM (active) in assay [10]. The EC50 in assay [11] was 0.0356 µM (active). The AC50 in assay [12] was 96.6 µM (active).

Regarding `CC(CNC(=O)c1cc(COc2ccc3ncccc3c2)on1)c1ccccc1` (stereo not drawn), the AC50 in [6] is 3.73 µM (active); in assay [7], 48.9 µM (active); in [8], 11.2 µM (active).

In the case of `CC(=Nc1ccccc1)C1=C(O)C(Cc2ccc(O)cc2)NC1=O` (stereo not drawn), the cytotoxic concentration (CC50) in assay [1] was 0.98 µM (active).

On to `CN(C)C(=O)c1ccc(NC(=O)c2cc(-c3ccco3)nc3ccccc23)cc1`, for which the IC50 in assay [5] was 7.55 µM (active).

On to `C[C@@H]1CN([C@@H](C)CO)S(=O)(=O)c2ccc(-c3cccc(F)c3)cc2O[C@@H]1CN(C)S(=O)(=O)c1ccc(F)cc1`, for which the AC50 was 24.2 µM (active) in assay [13] and 1.34 µM (active) in assay [14].

`CN1C(=O)c2cc(NC(=O)c3cscn3)ccc2OC[C@H]2O[C@H](CC(=O)NCc3ccc(Cl)c(Cl)c3)CC[C@H]21`: the AC50 in assay [13] is 41.8 µM (active); in assay [14] it was 11.3 µM (active).

Turning to `Cc1ccn(CC(=O)N/N=C/c2cc([N+](=O)[O-])ccc2O)n1`, the IC50 in [4] was 7.07 µM (active).

In the case of `O=C(N/N=C/C1C(=O)NC(=S)N(c2ccccc2)C1=O)c1cc(Br)c(O)c(Br)c1` (stereo not drawn), the IC50 in assay [4] is 10.5 µM (active).

The record behind these values is ChEMBL document CHEMBL1201862, “PubChem BioAssay data set” (2004).
